Reference: PMC6269910 (Molecules, 2013)

Legend:
[1] = test system: carrageenan-induced hind paw edema; assay: Carrageenan-induced hind paw edema model; assay type: in vivo, mice
[2] = test system: acetic acid-induced abdominal constriction; assay: Acetic acid-induced writhing (Koster) test; assay type: in vivo, mice; conditions: 100 mg/kg oral
Procedure, shortened: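 Test samples in 0.5% CMC/water given orally to mice; vehicle controls. One hour later, 3% acetic acid (0.1 mL/10 g) i.p.; writhes counted for 10 min starting 5 min post-injection. Activity expressed as % change from writhing controls; ASA 200 mg/kg as reference.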

[3] = test system: lipid peroxidation in stomach; assay: Lipid peroxidation in stomach (TBARS); assay type: in vivo, mice; conditions: 100 mg/kg, 8 h after analgesic test
LPO = LPO (TBARS) level in liver, kidney, colon, brain; assay type: in vivo, mice; conditions: 72 h
Description: (§1) Tissue samples were homogenized with ice-cold 150 mM KCl for the determination of LPO and glutathione (GSH) levels. The LPO levels were assayed by monitoring TBARS formation as described above.

myeloperoxidase (MPO) = assay: MPO activity in liver, kidney, colon, brain; assay type: in vivo, mice; conditions: 72 h
Description: MPO is an enzyme that is found predominantly in the azurophilic granules of polymorphonuclear leukocytes (PMN). […] MPO activity was measured in tissues in a procedure similar to that documented by […] et al.

glutathione (GSH) = assay: GSH level in liver, kidney, colon, brain; assay type: in vivo, mice; conditions: 72 h
Description: as §1

[4] = test system: superoxide dismutase (SOD); assay: SOD activity in liver, kidney, colon, brain; assay type: in vivo, mice; conditions: 72 h
Description: SOD is a major antioxidant enzyme found in cells, which protect cells from oxidative stress. SOD activity in the tissue samples was measured according to the previously described method.

[5] = target: T1, HCV NS5B RNA dependent RNA polymerase (Hepatitis C virus genotype 1b, UniProt P26663); assay: NS5B inhibition assay (primer dependent elongation, poly rA-U12); assay type: biochemical; conditions: read-out: Anti-NS5B Activity (% Inh., 100 µM)
T1 construct: HCV NS5B RNA dependent RNA polymerase activity
T1 sequence (P26663 2420-3010): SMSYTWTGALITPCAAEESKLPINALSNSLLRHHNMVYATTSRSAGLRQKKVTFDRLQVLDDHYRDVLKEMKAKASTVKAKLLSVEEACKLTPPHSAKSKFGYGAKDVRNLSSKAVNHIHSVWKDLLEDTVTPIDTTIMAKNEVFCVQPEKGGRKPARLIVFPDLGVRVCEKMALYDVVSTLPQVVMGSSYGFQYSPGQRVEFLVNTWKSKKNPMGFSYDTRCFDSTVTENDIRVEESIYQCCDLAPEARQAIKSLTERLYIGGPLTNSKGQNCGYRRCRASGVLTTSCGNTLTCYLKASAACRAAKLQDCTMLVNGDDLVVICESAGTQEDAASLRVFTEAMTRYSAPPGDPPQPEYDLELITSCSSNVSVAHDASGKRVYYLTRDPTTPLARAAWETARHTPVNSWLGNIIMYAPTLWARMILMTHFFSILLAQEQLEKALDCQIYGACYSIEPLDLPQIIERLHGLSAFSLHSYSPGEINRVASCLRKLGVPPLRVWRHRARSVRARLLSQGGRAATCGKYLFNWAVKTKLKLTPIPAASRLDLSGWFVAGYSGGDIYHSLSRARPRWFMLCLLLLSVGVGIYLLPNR
Procedure, shortened: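 Primer-dependent elongation on poly rA-U12 by HCV genotype 1b NS5B RdRp; compounds from DMSO stocks, preliminary screen at 100 μM. Activity expressed relative to a DMSO-matched no-inhibitor control set at 100%.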

CCNC(=S)NS(=O)(=O)c1ccc(-n2nc(C(F)(F)F)cc2-c2ccc(C)cc2)cc1 [Compound 1a, N-(Ethylcarbamothioyl)-4-[5-(4-methylphenyl)-3-(trifluoromethyl)-1H-pyrazol-1-yl] benzenesulfonamide]
Swelling in thickness ± SEM ([1]; 50 mg/kg per os, 90 min): 70.0 ± 6.5 × 10^−2 mm | percent inhibitory activity ([1]; 50 mg/kg per os, 90 min): 2.7% | Swelling in thickness ± SEM ([1]; 50 mg/kg per os, 180 min): 72.0 ± 5.1 × 10^−2 mm | percent inhibitory activity ([1]; 50 mg/kg per os, 180 min): 21.7% | Swelling in thickness ± SEM ([1]; 50 mg/kg per os, 270 min): 90.0 ± 9.3 × 10^−2 mm | percent inhibitory activity ([1]; 50 mg/kg per os, 270 min): 25.6% | Swelling in thickness ± SEM ([1]; 50 mg/kg per os, 360 min): 100.0 ± 6.5 × 10^−2 mm | percent inhibitory activity ([1]; 50 mg/kg per os, 360 min): 22.4% | Swelling in thickness ± SEM ([1]; 100 mg/kg per os, 90 min): 58.1 ± 6.6 × 10^−2 mm | percent inhibitory activity ([1]; 100 mg/kg per os, 90 min): 19.4% | Swelling in thickness ± SEM ([1]; 100 mg/kg per os, 180 min): 72.9 ± 11.9 × 10^−2 mm | percent inhibitory activity ([1]; 100 mg/kg per os, 180 min): 19.7% | Swelling in thickness ± SEM ([1]; 100 mg/kg per os, 270 min): 72.7 ± 16.7 × 10^−2 mm | percent inhibitory activity ([1]; 100 mg/kg per os, 270 min): 39.5% | Swelling in thickness ± SEM ([1]; 100 mg/kg per os, 360 min): 77.9 ± 11.7 × 10^−2 mm | percent inhibitory activity ([1]; 100 mg/kg per os, 360 min): 39.7% | Swelling in thickness ± SEM ([1]; 200 mg/kg per os, 90 min): 54.6 ± 7.9 × 10^−2 mm | percent inhibitory activity ([1]; 200 mg/kg per os, 90 min): 25.0% | Swelling in thickness ± SEM ([1]; 200 mg/kg per os, 180 min): 74.2 ± 8.2 × 10^−2 mm | percent inhibitory activity ([1]; 200 mg/kg per os, 180 min): 19.3% | Swelling in thickness ± SEM ([1]; 200 mg/kg per os, 270 min): 117.5 ± 9.8 × 10^−2 mm | percent inhibitory activity ([1]; 200 mg/kg per os, 270 min): 2.9% | Swelling in thickness ± SEM ([1]; 200 mg/kg per os, 360 min): 97.4 ± 5.6 × 10^−2 mm | percent inhibitory activity ([1]; 200 mg/kg per os, 360 min): 24.5% | anti-inflammatory activity (in words) ([1]; all doses, all measurement intervals): moderate-to-good | Writhing test (% inh.) [2]: 67.8% | Writhing test (Mean ± SEM) ([2]; writhings counted 10 min from 5 min after acetic acid): 5.6 ± 0.9 | Lipid peroxidation [3]: 387.7 ± 12.8 nmol TBARS/g wet weight | LPO (LPO; brain, 100 mg/kg oral): 8.36 ± 2.61 nmol/g tissue | LPO (LPO; brain, 200 mg/kg oral): 9.40 ± 2.08 nmol/g tissue | LPO (LPO; colon, 100 mg/kg oral): 8.66 ± 2.23 nmol/g tissue | LPO (LPO; colon, 200 mg/kg oral): 11.04 ± 2.11 nmol/g tissue | LPO (LPO; kidney, 100 mg/kg oral): 10.96 ± 2.01 nmol/g tissue | LPO (LPO; kidney, 200 mg/kg oral): 12.56 ± 2.96 nmol/g tissue | LPO (LPO; liver, 100 mg/kg oral): 9.78 ± 1.30 nmol/gtissue | LPO (LPO; liver, 200 mg/kg oral): 13.72 ± 3.05 nmol/gtissue | MPO (myeloperoxidase (MPO); brain, 100 mg/kg oral): 0.73 ± 0.32 U/gtissue | MPO (myeloperoxidase (MPO); brain, 200 mg/kg oral): 1.95 ± 0.60 U/gtissue | MPO (myeloperoxidase (MPO); colon, 100 mg/kg oral): 0.27 ± 0.13 U/gtissue | MPO (myeloperoxidase (MPO); colon, 200 mg/kg oral): 0.38 ± 0.14 U/gtissue | MPO (myeloperoxidase (MPO); kidney, 100 mg/kg oral): 3.18 ± 2.66 U/g tissue | MPO (myeloperoxidase (MPO); kidney, 200 mg/kg oral): 4.59 ± 1.01 U/g tissue | MPO (myeloperoxidase (MPO); liver, 100 mg/kg oral): 0.50 ± 0.28 U/gtissue | MPO (myeloperoxidase (MPO); liver, 200 mg/kg oral): 0.15 ± 0.08 U/gtissue | GSH (glutathione (GSH); brain, 100 mg/kg oral): 18.7 ± 5.52 µmol/g tissue | GSH (glutathione (GSH); brain, 200 mg/kg oral): 18.74 ± 3.03 µmol/g tissue | GSH (glutathione (GSH); colon, 100 mg/kg oral): 27.22 ± 2.41 µmol/g tissue | GSH (glutathione (GSH); colon, 200 mg/kg oral): 25.16 ± 2.76 µmol/g tissue | GSH (glutathione (GSH); kidney, 100 mg/kg oral): 17.02 ± 5.23 µmol/g tissue | GSH (glutathione (GSH); kidney, 200 mg/kg oral): 18.26 ± 3.28 µmol/g tissue | GSH (glutathione (GSH); liver, 100 mg/kg oral): 22.68 ± 1.20 µmol/g tissue | GSH (glutathione (GSH); liver, 200 mg/kg oral): 24.58 ± 4.47 µmol/g tissue | SOD ([4]; brain, 100 mg/kg oral): 19.17 ± 7.41 U/g tissue | SOD ([4]; brain, 200 mg/kg oral): 19.22 ± 10.76 U/g tissue | SOD ([4]; colon, 100 mg/kg oral): 16.56 ± 4.13 U/g tissue | SOD ([4]; colon, 200 mg/kg oral): 21.17 ± 4.15 U/g tissue | SOD ([4]; kidney, 100 mg/kg oral): 20.26 ± 8.71 U/g tissue | SOD ([4]; kidney, 200 mg/kg oral): 15.37 ± 7.33 U/g tissue | SOD ([4]; liver, 100 mg/kg oral): 21.15 ± 9.98 U/g tissue | SOD ([4]; liver, 200 mg/kg oral): 11.72 ± 5.10 U/g tissue | inhibition at 100 µM [5]: 49.4% | melting point: 215 to 218 °C
